Laboratory results from US10239957B2, “Peptide containing conjugates for dual molecular delivery of oligonucleotides” (Merck Sharp & Dohme Corp., priority 2013, dated 2019).
Where no end group is shown, it is not given here. [ ]: non-standard residue; d: D form. TGN = not defined here

Tests used:
CTNNB1 [1] = assay: In vivo evaluation in mice: liver mRNA knockdown measurement; conditions: mice
Protocol: Female CD-1 mice (Charles River) were injected in accordance with either a sequential dosing paradigm or a co-dosing paradigm. In the sequential dosing paradigm, the targeted siRNA (SCE) is dosed at t=0 and the targeted peptide is separately dosed up to 2 hr before the SCE (−2 hr) or up to 24 hr after the SCE (+24 hr). In the co-dosing paradigm, the SCE and peptides are co-formulated and dosed together in the same formulation as a single injection at t=0. The mice were dosed either by intravenous (i.v.) or subcutaneous (s.c.) injection of SCE and peptide. For the i.v. doses, the compounds were injected into the tail vein of the mice. For the s.c. doses, the compounds were injected in the subcutaneous space on the back of the mouse between the shoulder blades. At the indicated harvest times (measured from t=0 when the siRNA was dosed, regardless of when the peptide was dosed), the animals were sacrificed and 3 mm liver punches were collected, preserved in RNAlater (Ambion), and stored at 4° C. Separate 5 mm liver punches were collected, placed in 96-well plates, frozen on dry ice, and stored at −80° C. until use.
The 3 mm liver punches were removed from RNAlater and homogenized in Trizol (Invitrogen) using a bead mill tissue lyser (Qiagen); disruption was performed for two 5-minute cycles at 30 Hz. RNA extraction was performed using 1-bromo-2-chloropropane (Acros Organics) and total RNA was isolated from the aqueous phase using the MagMax RNA isolation method (Ambion). […] TaqMan qPCR analysis was performed with an ABI 7900 Real-Time PCR System using TaqMan Fast Advanced Master Mix (Applied Biosystems). All TaqMan probes and primers for CTNNB1 and PPIB (housekeeping gene) were purchased from Applied Biosystems as pre-validated gene expression assays. Results are calculated by the comparative Ct method, where the difference between the CTNNB1 Ct value and the PPIB Ct value (ΔCt) is calculated and then further normalized relative to the PBS control by taking a second difference (ΔΔCt), as described previously (1).

CTNNB1 [2] = assay: In vitro DMD assay: mRNA silencing enhancement by peptide conjugates after siRNA-IV treatment; format: cell-based; conditions: primary mouse hepatocytes, siRNA-IV 125 nM baseline
Summary of the method: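 RT-qPCR read-out, PPIB-normalized (dddCt), gave silencing enhancement versus 125 nM siRNA-IV alone and untreated cells. Beforehand, cultured primary mouse hepatocytes received siRNA-IV for 1 h, then graded peptide-conjugate doses for ~16 h, followed by washout and a further 24 h incubation.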

[3] = TGN-L-siRNA-III 0.25 mg/kg IV, peptide 10 mg/kg IV 15 min after siRNA

Substance	In vivo mRNA knockdown (CTNNB1 [1]; [3]) [%]	In vitro dddCt (vs. baseline SCE dose) (CTNNB1 [2]; Targeted peptide dose 15625 nM)	In vitro dddCt (vs. baseline SCE dose) (CTNNB1 [2]; Targeted peptide dose 125 nM)	In vitro dddCt (vs. baseline SCE dose) (CTNNB1 [2]; Targeted peptide dose 625 nM)	In vitro dddCt (vs. baseline SCE dose) (CTNNB1 [2]; Targeted peptide dose 3125 nM)	In vitro dddCt (vs. baseline SCE dose) (CTNNB1 [2]; Targeted peptide dose 8 nM)	In vitro dddCt (vs. baseline SCE dose) (CTNNB1 [2]; Targeted peptide dose 40 nM)	In vitro dddCt (vs. baseline SCE dose) (CTNNB1 [2]; Targeted peptide dose 200 nM)	In vitro dddCt (vs. baseline SCE dose) (CTNNB1 [2]; Targeted peptide dose 1000 nM)	In vitro dddCt (vs. baseline SCE dose) (CTNNB1 [2]; Targeted peptide dose 5000 nM)	also measured
TGN-S-S-SEQ ID NO: 1631 (D) ([dC]G[dL][dF]G[dH][dI][dH][dH][dL][dI][dH][dH]G[dL][dH][dN][dL][dI][dD][dW][dW][dN]G; not fully specified (residue 1); also: TGN attached via disulfide; listed as Homo sapiens)	17	−2.11	–	–	–	–	–	–	–	–	–
TGN-S-S-SEQ ID NO: 1632 (D) ([dC]G[dL][dF]G[dE][dI][dH][dH][dL][dI][dH][dH]G[dL][dH][dN][dL][dI][dD][dW][dW][dN]G; not fully specified (residue 1); also: TGN attached via disulfide; listed as Homo sapiens)	36	−0.47	−0.29	−0.44	−0.19	–	–	–	–	–	–
TGN-S-S-SEQ ID NO: 1633 (D) ([dC]G[dL][dF]G[dE][dI][dH][dH][dL][dI][dH][dH]G[dL][dE][dN][dL][dI][dD][dW][dW][dN]G; not fully specified (residue 1); also: TGN attached via disulfide; listed as Homo sapiens)	55	–	–	−0.2	−0.2	–	–	–	–	–	In vitro dddCt (vs. baseline SCE dose) (CTNNB1 [2]; Targeted peptide dose 25 nM): −0.33
TGN-S-S-SEQ ID NO: 1634 (D) ([dC]G[dL][dF]G[dE][dI][dH][dE][dL][dI][dH][dH]G[dL][dE][dN][dL][dI][dD][dW][dW][dN]G; not fully specified (residue 1); also: TGN attached via disulfide; listed as Homo sapiens)	17	−0.74	−0.3	−0.41	−0.3	–	–	–	–	–	–
TGN-S-S-SEQ ID NO: 1651 (D) ([dC]G[dL][dF][dE][dE][dI][dA][dE][dL][dI][dE][dE]G[dL][dE][dN][dL][dI][dD][dW]G[dN]G; not fully specified (residue 1); also: TGN attached via disulfide; listed as Homo sapiens)	49	−1.48	−0.84	−1.11	−1.55	–	–	–	–	–	–
TGN-S-S-SEQ ID NO: 1652 (D) ([dC][dE][dL][dF][dE][dE][dL][dA][dE][dL][dL][dW][dE]G[dL][dE][dN][dL][dI][dD][dW]G[dN][dS]; not fully specified (residue 1); also: TGN attached via disulfide; listed as Homo sapiens)	37	−2.03	−1.27	−1.5	−1.6	–	–	–	–	–	–
TGN-S-S-SEQ ID NO: 1653 (D) ([dC]G[dL][dF]G[dE][dI][dA][dE][dL][dI][dW][dE]G[dL][dE][dN][dL][dI][dD][dW]G[dN]G; not fully specified (residue 1); also: TGN attached via disulfide; listed as Homo sapiens)	63	−2.13	–	–	–	–	–	–	–	–	In vivo mRNA knockdown (CTNNB1 [1]; TGN-L-siRNA-III 0.25 mg/kg IV, peptide 50 mg/kg IV 15 min after siRNA): 69%; In vitro dddCt (vs. baseline SCE dose) (CTNNB1 [2]; Targeted peptide dose 25 nM): −0.76
TGN-S-S-SEQ ID NO: 1712 (L): TGN-S-S-peptide; peptide CFLGALWKALSELLKNLIDWWNG (C(TGN)FLGALWKALSELLKNLIDWWNG; reading uncertain; also: TGN disulfide conjugate at Cys1; listed as Homo sapiens)	–	–	–	–	–	0.03	0.07	−0.08	0	−0.2	In vivo mRNA knockdown (CTNNB1 [1]; TGN-L-siRNA-III 0.5 mg/kg IV, peptide 5 mg/kg IV 15 min after siRNA): 34%
TGN-S-S-SEQ ID NO: 1713 (L) (C(TGN)GLRHGELEELSHEEGLENLIDWWNG; reading uncertain; also: TGN disulfide conjugate at Cys1; listed as Homo sapiens)	2	–	–	–	–	0.21	0.21	0.15	−0.04	0	In vivo mRNA knockdown (CTNNB1 [1]; TGN-L-siRNA-III 0.25 mg/kg IV, peptide 2 mg/kg IV 15 min after siRNA): 0%
TGN-S-S-SEQ ID NO: 1740 (L): TGN-S-S-peptide; peptide GLFEAIEGFIENGWEGLAELAEALEALAAGGSC (GLFEAIEGFIENGWEGLAELAEALEALAAGGSC(TGN); reading uncertain; also: TGN linked to Cys via disulfide, TGN not defined; listed as Homo sapiens)	–	–	–	–	–	0	0.13	−0.07	−0.06	−0.06	In vivo mRNA knockdown (CTNNB1 [1]; TGN-L-siRNA-II 0.25 mg/kg IV, peptide 3 mg/kg IV 15 min after siRNA): 20%
TGN-S-S-SEQ ID NO: 1746 (D): TGN-S-S-peptide; peptide CEALFGKINAIFIGKL ([dC][dE][dA][dL][dF]G[dK][dI][dN][dA][dI][dF][dI]G[dK][dL]; not fully specified (residue 1); also: disulfide to TGN peptide via Cys1; listed as Homo sapiens)	–	–	–	–	–	−0.01	−0.09	−0.07	−0.09	−0.04	In vivo mRNA knockdown (CTNNB1 [1]; TGN-L-siRNA-III 0.5 mg/kg IV, peptide 2 mg/kg IV 15 min after siRNA): 31%; In vivo mRNA knockdown (CTNNB1 [1]; TGN-L-siRNA-III 0.5 mg/kg IV, peptide 10 mg/kg IV 15 min after siRNA): 25%
siRNA-IV: CTNNB1 siRNA; passenger SEQ ID NO 1807 (clickA, 5Chol), guide SEQ ID NO 1806 (sense CUGUUGGAUUGAUUCGAAAUU; guide TUUCGAAUCAAUCCAACAGUU; click A, 5' cholesterol; vinylphosphonate MOE T; (1)..(1) aminohexyl phosphate inverted abasic cap; (1)..(2) 2′-O-methyl; (3)..(3) 2′-deoxy-2′-fluoro; (4)..(5) 2′-O-methyl; (6)..(8) 2′-deoxy-2′-fluoro; (9)..(10) 2′-O-methyl; (11)..(12) 2′-deoxy-2′-fluoro; (13)..(15) 2′-O-methyl; (16)..(16) 2′-deoxy-2′-fluoro; (17)..(17) 2′ propagyl; (18)..(19) 2′-deoxy-2′-fluoro; (20)..(21) 2′-O-methyl; (20)..(21) phosphorothioate internucleotide linkage; (21)..; (1)..(1) terminal vinyl phosphate; (1)..(1) 2′-methoxyethoxy; (2)..(21) ribonucleotide unmodified or modified as described for this sequence; …)	–	–	–	–	–	–	–	–	–	–	In vivo mRNA knockdown (CTNNB1 [1]; targeted siRNA alone 0.5 mg/kg IV, peptide dose 0): 25%; In vivo mRNA knockdown (CTNNB1 [1]; targeted siRNA alone 2 mg/kg IV, peptide dose 0): 25%; In vivo mRNA knockdown (CTNNB1 [1]; targeted siRNA alone 5 mg/kg IV, peptide dose 0): 35%
